Like-named read-outs stand apart in the source and are kept apart here.
How the values were obtained:
[1] = target: T1, β5 subunit of the human immunoproteasome (IPS) (Homo sapiens, UniProt P28062); test: β5 inhibition assay, human immunoproteasome (Suc-LLVY-AMC); format: biochemical; conditions: IC50 class, Suc-LLVY-AMC substrate
T1 construct: purchased Boston Biochem E-370
Procedure, shortened: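 β5 activity is read as liberated AMC fluorescence (355/460 nm) after 4 h dark reaction at RT with 22.6 μM Suc-LLVY-AMC, stopped by 1 μM bortezomib. Beforehand, 1 nM human IPS and compound sat 10 min at RT in HEPES pH 7.5 buffer containing NaCl, 0.02% SDS and DTT.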

HT-29 cells = test: CellTiter-Glo luminescent cell viability assay with HT-29 cells (72h incubation); format: cell-based, human; conditions: Homo sapiens, HT-29, HT29 cells, read-out: CTG HT29
Procedure, shortened: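 Viability read as CellTiter-Glo luminescence after 72 h compound exposure, with 10 μM staurosporine and DMSO as control wells. Seeding 400 cells per well, compound added 24 h post-plating; IC50 from curve fitting.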

[2] = tested on: A549 (human lung carcinoma cell line); test: Glo assay of A549 cells (Table 3; ProteasomeGlo plating scheme); format: cell-based; conditions: Homo sapiens
Procedure, shortened: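 Cells plated in 384 wells; compound, DMSO, staurosporine transferred by ECHO; 105 min, 37° C., 5% CO2; Proteasome-Glo (Suc-LLVY-Glo) reagent added; dark 10-15 min; luminescence; IC50 nM.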

[3] = A549 cells, read-out: PGLo A549

Compound	IC50 [1] [nM]	IC50 (HT-29 cells) [nM]	IC50 [2, 3] [nM]	IC50 ([2]; A549, read-out: PGLo A549 [nM]) [nM]
CCC(C(=O)N[C@H]1CC(=O)N2CCCC(CCOc3ccc(C)c(c3)CNC(=O)[C@H](CCc3ccccc3)NC1=O)C2)c1ccc(OC)c(OC)c1 (stereo partly drawn) [Compound 64, 2-(3,4-dimethoxyphenyl)-N-((9S,12S)-5^4-methyl-8,11,14-trioxo-9-phenethyl-4-oxa-7,10-diaza-1(3,1)-piperidina-5(1,3)-benzenacyclotetradecaphane-12-yl)butanamide]	< 100	< 100	< 100	
Cc1ccc2cc1CNC(=O)[C@H](CCc1ccccc1)NC(=O)[C@H](NC(=O)OCc1ccccc1)CC(=O)N1CCC[C@H](CCO2)C1 [Compound 291, benzyl ((13R,9S,12R)-5^4-methyl-8,11,14-trioxo-9-phenethyl-4-oxa-7,10-diaza-1(3,1)-piperidina-5(1,3)-benzenacyclotetradecaphane-12-yl)carbamate]	< 100	< 100	1000 to 5000	
Cc1ccc2cc1CNC(=O)[C@H](CCc1ccccc1)NC(=O)[C@@H](NC(=O)OCc1ccccc1)CC(=O)N1CCC[C@H](CCO2)C1 [Compound 292, benzyl ((13R,9S,12S)-5^4-methyl-8,11,14-trioxo-9-phenethyl-4-oxa-7,10-diaza-1(3,1)-piperidina-5(1,3)-benzenacyclotetradecaphane-12-yl)carbamate]	< 100	< 100	< 100	
Cc1ccc2cc1CNC(=O)[C@H](CCc1ccccc1)NC(=O)[C@@H](NC(=O)OCC1(C)COC1)CC(=O)N1CCCC(CCO2)C1 (stereo partly drawn) [Compound 293, (3-methyloxetan-3-yl)methyl ((9S,12S)-5^4-methyl-8,11,14-trioxo-9-phenethyl-4-oxa-7,10-diaza-1(3,1)-piperidina-5(1,3)-benzenacyclotetradecaphane-12-yl)carbamate]	< 100	< 100		< 100
CC(=O)N[C@H]1CC(=O)N2CCCC(CCOc3ccc(C)c(c3)CNC(=O)C(c3cnn(Cc4ccccc4)c3)NC1=O)C2 (stereo partly drawn) [Compound 565, N-((12S)-9-(1-benzyl-1H-pyrazol-4-yl)-5^4-methyl-8,11,14-trioxo-4-oxa-7,10-diaza-1(3,1)-piperidina-5(1,3)-benzenacyclotetradecaphane-12-yl)acetamide]	< 100	< 100	< 100	

— patent publication US20240415819A1, “MACROCYCLIC COMPOUNDS AS PROTEASOME SUBUNIT BETA TYPE-5 INHIBITORS” (Lead Discovery Center GmbH, priority 2021, published 2024)
